What was measured:
human GlyT1c transporter = molecular target: T1, human GlyT1c transporter (Homo sapiens, UniProt P48067); assay: Radioligand binding assay using recombinant CHO cell membranes expressing human GlyT1; conditions: read-out: radioligand binding Kiapp
T1 construct: expressed in transfected cells; host or cells: recombinant CHO cells (membranes); the uptake assay names the line hGlyT1c_5_CHO
T1 sequence (P48067 1-706): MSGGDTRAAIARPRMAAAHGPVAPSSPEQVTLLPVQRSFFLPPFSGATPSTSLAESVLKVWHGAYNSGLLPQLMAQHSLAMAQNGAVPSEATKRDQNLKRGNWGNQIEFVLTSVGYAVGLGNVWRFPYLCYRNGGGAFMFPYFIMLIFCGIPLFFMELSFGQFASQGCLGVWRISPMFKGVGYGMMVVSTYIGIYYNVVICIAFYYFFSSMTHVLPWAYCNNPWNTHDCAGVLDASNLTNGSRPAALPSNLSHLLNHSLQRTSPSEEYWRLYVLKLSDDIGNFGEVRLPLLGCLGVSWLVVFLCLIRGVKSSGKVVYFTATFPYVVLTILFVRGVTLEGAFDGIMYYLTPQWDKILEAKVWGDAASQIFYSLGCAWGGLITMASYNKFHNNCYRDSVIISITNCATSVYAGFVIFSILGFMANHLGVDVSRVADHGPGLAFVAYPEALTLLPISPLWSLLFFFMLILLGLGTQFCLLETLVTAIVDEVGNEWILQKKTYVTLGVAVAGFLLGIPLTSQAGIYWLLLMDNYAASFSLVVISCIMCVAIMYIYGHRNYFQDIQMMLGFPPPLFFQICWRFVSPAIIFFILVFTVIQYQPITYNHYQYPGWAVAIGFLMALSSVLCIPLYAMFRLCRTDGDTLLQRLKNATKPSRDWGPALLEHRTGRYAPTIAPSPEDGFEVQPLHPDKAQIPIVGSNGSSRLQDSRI
Experimental: 2. Radioligand Binding Assays Using Recombinant CHO Cell Membranes Expressing Human GlyT1:
Radioligand binding to human GlyT1c transporter-expressing membranes was determined as described in Mezler et al., Molecular Pharmacology 74:1705-1715, 2008.

[1] = Metabolic stability in human liver microsomes (microsomal clearance); assay type: in vitro ADME; conditions: human liver microsomes 0.25 mg protein/ml, 0.5 μM test substance, NADPH 1.0 mM, pH 7.4, 37° C.
Experimental: The metabolic stability of a compound can be measured for example by incubating a solution of this compound with liver microsomes from particular species (for example rat, dog or human) and determining the half-life of the compound under these conditions (R S Obach, Curr Opin Drug Discov Devel. 2001, 4, 36-44). It is possible in this connection to conclude from an observed longer half-life that the metabolic stability of the compound is improved. The stability in the presence of human liver microsomes is of particular interest because it makes it possible to predict the metabolic degradation of the compound in the human liver. Compounds with increased metabolic stability (measured in the liver microsome test) are therefore probably also degraded more slowly in the liver. The slower metabolic degradation in the liver may lead to higher and/or longer-lasting concentrations (active levels) of the compound in the body, so that the elimination half-life of the compounds of the invention is increased. Increased and/or longer-lasting active levels may lead to a better activity of the compound in therapeutic treatment. In addition, an improved metabolic stability may lead to an increased bioavailability after oral administration, because the compound is subject, after absorption in the intestine, to less metabolic degradation in the liver (so-called first pass effect). An increased oral bioavailability may, owing to an increased concentration (active level) of the compound, lead to a better activity of the compound after oral administration.
Metabolic stability was determined as follows:
0.5 μM test substance was preincubated together with human liver microsomes (0.25 mg of microsomal protein/ml) in 0.05 M potassium phosphate buffer of pH 7.4 in microtiter plates at 37° C. for 5 min. The reaction was started by adding NADPH (1.0 mM). After 0, 5, 10, 15, 20 and 30 min, 65 μl aliquots were removed, and the reaction was immediately stopped and cooled with twice the amount of ethanol. The samples were frozen until analyzed. The remaining concentration of undegraded test substance was determined by LC MSMS. The half-life (T½) was determined from the gradient of the signal of test substance/unit time plot, allowing to calculate the half-life of the test substance, assuming first order kinetics, from the decrease in the concentration of the compound with time. The microsomal clearance (mCl) was calculated from mCl=ln 2/T½/(content of microsomal protein in mg/ml)×1000 (modified from references: Di, The Society for Biomolecular Screening, 2003, 453-462; Obach, DMD, 1999 vol 27. N 11, 1350-1359).

Ki (human GlyT1c transporter): ≤ 1000 nM
human mCl [1]: ≦100 μl/min/mg
Structure (SMILES): O=S(=O)(CC1CC1)NCCOc1ccc2c(c1)C(Cc1ccccc1)NCCO2 (centres unmarked) [Example 53, N-[2-(5-Benzyl-2,3,4,5-tetrahydro-benzo[f][1,4]oxazepin-7-yloxy)-ethyl]-C-cyclopropyl-methanesulfonamide]
